According to paper PMC5931107, “Clinical pharmacodynamic/exposure characterisation of the multikinase inhibitor ilorasertib (ABT-348) in a phase 1 dose-escalation trial” (British Journal of Cancer, 2018):
Like-named read-outs stand apart in the source and are kept apart here. Marks after values point to notes of the source that are not given here.

How the values were obtained:
[1] = Plasma pharmacokinetics, Arm III (i.v. infusion), phase 1 trial; assay type: in vivo, human; settings: for half-life: read-out: t1/2 (harmonic mean) (converted)
Protocol: Pharmacokinetics of ilorasertib were evaluated in the dose-escalation cohort on blood samples that were collected on cycle 1 days 1 and 15. Parameters determined: Cmax, time to Cmax (Tmax), terminal phase elimination half-life (t1/2), clearance, apparent oral clearance (CL/F), and area under the plasma concentration-time curve from time 0 to time of last measurable concentration (AUCt) and from time 0 to infinity (AUC∞). For Arm I, blood samples were collected prior to dosing and at 0.5, 1, 2, 3, 4, 6, 8, 10 or 12, and 24 h after dosing on cycle 1 days 1 and 15; of note, for institutions not able to collect the 10- or 12-h post-dose sample, the 24-h sample was replaced with 22-h and 28-h post-dose samples. In Arm II, for the first dose, blood samples were collected pre-dose and at 1, 2, 3, and 4 h post-dose on cycle 1 days 1 and 15; for the second dose, samples were collected pre-dose and at 1, 2, 3, 4, 18, and 24 h after second dose on cycle 1 days 1 and 15. In Arm III, blood samples were collected prior to infusion, at 1 h 55 min (just before end of infusion), and at 0.5, 1, 2, 4, 6, 8, 10, and 24 h after end of infusion on cycle 1 days 1 and 15; here also, for institutions not able to collect the 8-h or 10-h after-end-of-infusion samples, the 24-h sample was replaced with 22-h and 28-h post-dose samples. The liquid chromatography (LC)-mass spectrometry (MS)/MS method was developed and validated in the Bioanalysis Department of AbbVie. Fifty microliter of human plasma (K2EDTA as anticoagulant) was fortified with 300 μL of deuterium-stable labelled internal standard and mixed well. A HybridSPE precipitation plate (50 mg/96 wells, Supelco Analytical, Munich, Germany) was used to directly load and elute (under slight vacuum) the fortified samples into a clean collection plate. Samples were dried before reconstitution with 100 μL of 20/80 (v/v) acetonitrile/water, and injected for LC-MS/MS analysis. A Halo C8 (Wilmington, DE, USA; 2.7 μm, 2.1 × 30 mm) was used on an Agilent 1290 Infinity UPLC pump (Agilent Technologies, Santa Clara, CA) to carry out the separation. An isocratic condition with 25/75/0.1 (v/v/v) acetonitrile/water/98% formic acid was used as the mobile phase. The flow rate was set to be 0.6 mL/min. An MPS 3 C ([…] Ruhr, Germany) autosampler was used to introduce samples onto the UPLC system. An API 4000 mass spectrometer (Applied Biosystems, Foster City, CA) was used in the multiple reactions monitoring mode for the detection and quantitation of analyte. Descriptive statistics were used for demographic variables. The numbers and percentages of patients with treatment-emergent AEs (TEAEs) were tabulated using the Medical Dictionary for Regulatory Activities version 16.0 system organ class and preferred term, and further classified according to CTCAE version 4.0 criteria. The safety data set included all patients who received one or more doses of ilorasertib. The pharmacokinetic data set included all patients who received one or more doses of ilorasertib and had one or more pharmacokinetic samples. Values for pharmacokinetic parameters were determined using non-compartmental methods, with data analysed separately for each arm. A repeated measures analysis was performed for Tmax and dose-normalised Cmax, AUCt, and AUC∞. The model included random effects for patient and fixed effects for dose level, day, and the interaction of dose level and day. To assess effects of exposure on pharmacodynamic biomarkers, Cmax was employed as the directly measured marker of exposure for the rapid changes in DBP and PlGF pre-steady-state, while AUC∞ reflected exposure variability at the time of post-multiple-dose skin biopsy. Descriptive statistics were used to summarise ECOG performance status. The efficacy data set included all patients who received one or more doses of ilorasertib.

advanced solid tumours = test: Tumour response, RECIST version 1.1; assay type: in vivo, human; settings: Arm II
Protocol: Disease effect endpoints were determined using Response Evaluation Criteria In Solid Tumors version 1.1. Tumour burden assessment was conducted within 21 days prior to cycle 1 day 1, every 8 weeks thereafter, and at the final visit if not performed in the past 4 weeks.

VEGFR1 = test system: VEGFR1; parameters: method as in PMID 22935731; settings: 1 mM ATP; read-out: Biochemical IC50 (95% confidence limits); cited from earlier work
VEGFR2 = test system: VEGFR2; parameters: method as in PMID 22935731; settings: 1 mM ATP; read-out: Biochemical IC50 (95% confidence limits); cited from earlier work
CSF-1R [2] = test system: CSF-1R; parameters: method as in PMID 22935731; settings: 1 mM ATP; read-out: Biochemical IC50 (95% confidence limits); cited from earlier work
CSF-1R [3] = test system: CSF-1R; parameters: method as in PMID 22935731; settings: CSF-1R cellular phosphorylation, ligand stimulated; read-out: Cellular PD marker IC50 (95% confidence limits); cited from earlier work
[4] = Arm III i.v. infusion 8 mg, day 1, N=4
[5] = Arm III i.v. infusion 8 mg, day 15, N=4
[6] = Arm III i.v. infusion 16 mg, day 1, N=1
[7] = Arm III i.v. infusion 16 mg, day 15, N=1
[8] = Arm III i.v. infusion 32 mg, day 1, N=2, mean (individual)
[9] = Arm III i.v. infusion 32 mg, day 15, N=2, mean (individual)
[10] = Arm III i.v. infusion all doses, day 1, N=7
[11] = Arm III i.v. infusion all doses, day 15, N=7
[12] = human, plasma, iv, 8 mg, Arm III i.v. infusion 8 mg, day 1, N=3
[13] = human, plasma, iv, 8 mg, Arm III i.v. infusion 8 mg, day 15, N=3
[14] = human, plasma, iv, 16 mg, Arm III i.v. infusion 16 mg, day 1, N=1
[15] = human, plasma, iv, 16 mg, Arm III i.v. infusion 16 mg, day 15, N=1
[16] = human, plasma, iv, 32 mg, Arm III i.v. infusion 32 mg, day 1, N=2, mean (individual)
[17] = human, plasma, iv, 32 mg, Arm III i.v. infusion 32 mg, day 15, N=2, mean (individual)
[18] = human, plasma, iv, Arm III i.v. infusion all doses, day 1, N=6
[19] = human, plasma, iv, Arm III i.v. infusion all doses, day 15, N=6
[20] = 40 mg BID, basal cell carcinoma patient
[21] = 230 mg BID, adenocarcinoma of unknown primary site

Nc1ncc(-c2cnn(CCO)c2)c2scc(-c3ccc(NC(=O)Nc4cccc(F)c4)cc3)c12 [ilorasertib, Ilorasertib]
AUC∞/dose ([1]; Arm III i.v. infusion 8 mg, day 1, N=3): 273 ± 38.5^b ng•h/mL/mg
AUCt/dose [1, 4]: 185 ± 42.9 ng·h/mL/mg
Cmax/dose [1, 4]: 29.3 ± 10.3 ng/mL/mg
AUC∞/dose ([1]; Arm III i.v. infusion 8 mg, day 15, N=3): 360 ± 249^b ng•h/mL/mg
AUCt/dose [1, 5]: 219 ± 71.5 ng·h/mL/mg
Cmax/dose [1, 5]: 30.8 ± 13.3 ng/mL/mg
AUCt/dose [1, 6]: 119 ng·h/mL/mg
AUC∞/dose [1, 6]: 152 ng·h/mL/mg
Cmax [1, 6]: 0.37 µg/mL
Cmax/dose [1, 6]: 22.9 ng/mL/mg
AUCt/dose [1, 7]: 190 ng·h/mL/mg
AUC∞/dose [1, 7]: 215 ng·h/mL/mg
Cmax [1, 7]: 0.74 µg/mL
Cmax/dose [1, 7]: 46 ng/mL/mg
AUCt/dose [1, 8]: 265 (390, 139) ng•h/mL/mg
AUC∞/dose [1, 8]: 287 (424, 150) ng•h/mL/mg
Cmax [1, 8]: 1.31 (1.69, 0.94) μg/mL
Cmax/dose [1, 8]: 41.0 (52.8, 29.2) ng/mL/mg
AUCt/dose [1, 9]: 228 (304, 153) ng•h/mL/mg
AUC∞/dose [1, 9]: 263 (358, 168) ng•h/mL/mg
Cmax [1, 9]: 1.37 (1.85, 0.88) μg/mL
Cmax/dose [1, 9]: 42.7 (57.8, 27.6) ng/mL/mg
AUC∞/dose ([1]; Arm III i.v. infusion all doses, day 1, N=6): 258 ± 104^d ng•h/mL/mg
AUCt/dose [1, 10]: 198 ± 93.7 ng·h/mL/mg
Cmax/dose [1, 10]: 31.8 ± 12.0 ng/mL/mg
AUC∞/dose ([1]; Arm III i.v. infusion all doses, day 15, N=6): 303 ± 180^d ng•h/mL/mg
AUCt/dose [1, 11]: 217 ± 68.0 ng·h/mL/mg
Cmax/dose [1, 11]: 36.4 ± 14.7 ng/mL/mg
AUC(0-inf) [1, 12]: 2190 ± 310 ng·h/mL
clearance [1, 12]: 61.8 mL/min
half-life [1, 12]: 8.5 ± 4.1 h
AUC(0-t) ([1]; human, plasma, iv, 8 mg, Arm III i.v. infusion 8 mg, day 1, N=4): 1480 ± 340 ng·h/mL
Cmax ([1]; human, plasma, iv, 8 mg, Arm III i.v. infusion 8 mg, day 1, N=4, read-out: Cmax): 0.23 ± 0.08 µg/mL
AUC(0-inf) [1, 13]: 2880 ± 1990 ng·h/mL
clearance [1, 13]: 60.2 mL/min
AUC(0-t) ([1]; human, plasma, iv, 8 mg, Arm III i.v. infusion 8 mg, day 15, N=4): 1750 ± 570 ng·h/mL
Cmax ([1]; human, plasma, iv, 8 mg, Arm III i.v. infusion 8 mg, day 15, N=4, read-out: Cmax): 0.25 ± 0.11 µg/mL
AUC(0-inf) [1, 14]: 2440 ng·h/mL
AUC(0-t) [1, 14]: 1910 ng·h/mL
clearance [1, 14]: 109 mL/min
AUC(0-inf) [1, 15]: 3450 ng·h/mL
AUC(0-t) [1, 15]: 3040 ng·h/mL
clearance [1, 15]: 77.3 mL/min
half-life [1, 15]: 9.6 h
AUC(0-inf) [1, 16]: 9180 ng·h/mL
AUC(0-t) [1, 16]: 8460 ng·h/mL
clearance [1, 16]: 75.2 mL/min
half-life [1, 16]: 9.3 h
AUC(0-inf) [1, 17]: 8410 ng·h/mL
AUC(0-t) [1, 17]: 7300 ng·h/mL
clearance [1, 17]: 73 mL/min
clearance [1, 18]: 74.2 mL/min
half-life [1, 18]: 9.1 ± 3.3 h
clearance [1, 19]: 67.3 mL/min
half-life [1, 19]: 12.1 ± 4.4 h
Tmax ([1]; human, plasma, iv, Arm III i.v. infusion 8 mg, day 1, N=4): 2 ± 0.2 h
Tmax ([1]; human, plasma, iv, Arm III i.v. infusion all doses, day 1, N=7): 2 ± 0.2 h
Best response (advanced solid tumours; [20]): partial response
Best response (advanced solid tumours; [21]): partial response
IC50 (VEGFR1): 1 nM
IC50 (VEGFR2): 2 nM
